In US8470807B2, “Antioxidant” (Morinaga Milk Industry Co., Ltd., priority 2008, dated 2013):

How the values were obtained:
[1] = tested on: ApoE gene-deficient mice; test: Inhibition of lipid peroxide formation in blood (serum TBARS/MDA) in ApoE gene-deficient mice; format: in vivo, mouse; conditions: 30 μg per day; for Amount of lipid peroxide in blood (MDA concentration): serum, 14 days after start of administration, oral once a day, high-cholesterol diet
From the text: The actions of inhibiting formation of a lipid peroxide of various test samples including the antioxidant of the present invention can be evaluated by using, as an index, the amount of a thiobarbituric acid (TBA) reactive substance (TBARS), for example. Specifically, it may be defined that the larger the amount of the TBARS, the larger the amount of a lipid peroxide formed.
Examples of the TEARS include malondialdehyde (MDA) which reacts with TBA under high-temperature and acidic conditions and is a natural by-product of a lipid peroxidation. An MDA-TBA adduct can be detected by measurement of an absorbance at 530 to 540 nm to perform colorimetric measurement of MDA.
Also, the action of inhibiting formation of a lipid peroxide of a test sample can be evaluated using ApoE gene-deficient mice, which are often used as model animals which develop arteriosclerosis by hypercholesterolemia (hyper-LDL-cholesterolemia) (for example, see Reference Document 1: “Saibokogaku (Cell Engineering),” Extra Issue, “Medical Experiment Manual” series, Strategy for Study of Arteriosclerosis+Hyperlipidemia, Shujunsha Co., 1st edition, 1st impression, published on Apr. 1, 1996, pp. 441-443).
Further, in the model mice, the lipid peroxide level is higher than that of normal mice, and formation of atherosclerotic lesions (plagues) in the artery is observed with time. Therefore, the action of inhibiting formation of a lipid peroxide of a test sample can be evaluated by administering the test sample to the model mice and measuring a lipid peroxide in blood of the model mice.
Those samples were separately dissolved in propylene glycol, and diluted with distilled water so as to obtain test solutions with the concentration of each compound of 30 μg/ml, and the solutions were used for a test. Note that physiological saline was used as a negative sample.
(§1) Six-week-old male ApoE gene-deficient mice (purchased from Japan SLC, Inc.) were preliminarily fed with a high-cholesterol diet (manufactured by Research Diets, Inc.) for 2 weeks and divided into groups each of 15 mice.
To mice of each group, the test solution including the test samples 1 to 6, control sample, or negative sample was separately administered orally once a day for […] using medical probes in an amount of 1 ml per 25 g of mouse body weight. At an early period after the start of administration (14 days after the start of administration), blood was collected from the tail vein of each mouse, and serum was separated. Then, the amount of TBARS was measured using OxiSelect TBARS Assay Kit (manufactured by […]). Meanwhile, as a control, blood was collected from each normal mouse in the same manner as above.

[2] = tested on: ApoE gene-deficient mice; test: Number of atherosclerotic lesions (plaques) in thoracic aorta of ApoE gene-deficient mice; format: in vivo, mouse; conditions: 40 days after start, oral once a day for 39 consecutive days; for Number of plaques formed in thoracic aorta: 1 ml of 30 μg/ml per 25 g body weight, Oil red staining
From the text: In addition, it is generally known that a primary lesion of arteriosclerosis is caused by oxidized LDL. Therefore, it is also possible to evaluate the action of reducing a risk of arteriosclerosis through inhibiting formation of a lipid peroxide of the test sample by counting the number of atherosclerotic lesions (plaques) in the artery of each model mouse treated with the test sample.
In Example 2, a cyclolanostane compound, a lophenol compound, and a mixture of the cyclolanostane compound and the lophenol compound were each evaluated on the effect of reducing a risk of arteriosclerosis through the effect of inhibiting a lipid peroxide by counting the number of atherosclerotic lesions (plaques) in the artery using known arteriosclerosis model animals, ApoE gene-deficient mice.
Test samples 1 to 6, a control sample, and a negative sample were prepared in the same way as in Example 1 above and were each used for a test.
as §1
To mice of each group, the sample solution including the test samples, control sample, or negative sample was separately administered orally once a day for 39 consecutive days using medical probes in an amount of 1 ml per 25 g of mouse body weight. Forty days after the start of administration, the thoracic aorta part was fixed with formalin and stained with Oil red, and the number of plaques was counted.

Row | SMILES | Amount of lipid peroxide in blood (MDA concentration) [1] | Number of plaques formed in thoracic aorta [2] | effect of inhibiting formation of a lipid peroxide in blood compared with the negative sample ([1]; serum TBARS, 14 days after start of oral administration) | plaque formation compared with the negative sample [2]
1 | CCC(CCC(C)C1CCC2C3=CCC4C(C)C(O)CCC4(C)C3CCC21C)C(C)C (centres unmarked) [Test sample 5, 4-methylstigmast-7-en-3-ol] | 0.72 ± 0.02 µM | 5.6 ± 2.1 | – | –
2 | CC(C)CCCC(C)C1CCC2(C)C3CCC4C(C)(C)C(O)CCC45CC35CCC12C (centres unmarked) [Test sample 1, 9,19-Cyclolanostan-3-ol] | 0.62 ± 0.01 µM | 6.0 ± 0.7 | – | –
3 | CC(C)C(C)CCC(C)C1CCC2C3=CCC4C(C)C(O)CCC4(C)C3CCC21C (centres unmarked) [Test sample 4, 4-methylergost-7-en-3-ol] | 0.69 ± 0.05 µM | 5.0 ± 1.4 | – | –
4 | C=C(CCC(C)C1CCC2(C)C3CCC4C(C)(C)C(O)CCC45CC35CCC12C)C(C)C (centres unmarked) [Test sample 2, 24-methylene-9,19-cyclolanostan-3-ol] | 0.5 ± 0.19 µM | 5.6 ± 1.5 | – | –
5 | CC(C)CCC[C@@H](C)[C@H]1CC[C@H]2C3=CCC4C(C)C(O)CC[C@]4(C)[C@H]3CC[C@]12C (some centres unmarked) [Test sample 3, 4-Methylcholest-7-en-3-ol] | 0.71 ± 0.08 µM | 6.2 ± 1.9 | – | –
6 | CC[C@H](C)C(=O)O[C@H]1C[C@H](O)C=C2C=C[C@H](C)[C@H](CC[C@@H](O)C[C@@H](O)CC(=O)[O-])[C@H]21.[Na+] [Control sample, reference compound] | 0.93 ± 0.05 µM | 10.6 ± 3.2 | a significant decrease in amount of a lipid peroxide in blood was not observed | no significant difference
